{"source": "patent US7001770B1", "about": "“Calpain inhibitors and their applications” (priority 1998, dated 2006)", "key": {"HLF cells": {"tested_on": "HLF cells", "experiment": "Apoptosis by annexin V-FITC staining, flow cytometry", "type": "cell-based", "conditions": "calpain inhibitor 2 at 10 μM", "procedure": "(§1) P53 was administered to the cells by the use of the replication defective adenoviral vector ACN53 described in Wills, et al., supra. The effect of varying concentrations of rAd-p53 (from […] to 2×10^9 rAd-p53 particles/ml of solution) was investigated in combination with CI-1 in a range of 5–20 μm. The effects of individual and combination treatment was determined in the in DLD1, RKO, HLF and SK-Hep1 cells was investigated in substantial accordance with the teaching of Examples 2 and 3 herein. The percentage of apoptotic cells was determined at 17 hours post treatment (with the exception of U87 cells (24 hours) and HeLa cells (68 hours)) with annexin V positive staining. The results are presented in graphical format in FIG. 3 of the attached drawings. In brief, the results were as follows:\nTo quantitate the increased efficacy of rAd-p53 induced cell killing in tumor cell lines in response to CI-1 treatment, HLF cells were infected with increasing concentrations of rAd-p53 with or without 10 μM CI-1, and assayed for percentage apoptotic cells by annexin V-FITC staining 42 hours post-treatment in substantial accordance with the teaching of Example 3 herein. […] No increase in annexin V-FITC positive cells was detected at 1×10^5 particles/ml rAd-p53 with or without 10 μM CI-1. At 1×10^6 particles/ml rAd-p53, the percentage apoptotic cells without CI-1 was 14%, while 40% of annexin V positive cells was detected when cell were treated with 10 μM CI-1. At a concentration of 1×10^7 ACN53 particles/ml, 17% annexin V positive without and 63% with 10 μM CI-1 was detected. At 1×10^8 particles/ml, 52% were annexin V positive without and 70% positive with inhibitor treatment. At a dose of 1×10^9 particles of rAd-p53, however, the percentage annexin V positive was about the same for both 77% without and 74% with 10 μM CI-1. […] concentration of rAd-p53 was sufficient to induce approximately 50% cell death, while only a 1×10^7 particle/ml concentration rAd-p53 was needed to induce approximately the same percentage of cell death when 10 μM CI-1 as added.\n(§2) The effect of an inhibitor of μ-calpains, CI-1 (N-acetyl-leu-leu-norleucinal), was investigated for its ability to enhance p53 mediated apoptosis in tumor cell lines having p53+ and p53− status listed in Table1. Each cell line was treated with 5–50 μM CI-1 for 17–26 hours. To detect a G0/G1 block, bromodeoxyuridine (BrdU) incorporation followed by flow cytometric analysis was done 17 hours post-treatment as described in Example 4 herein. […] The results of these experiments are presented in FIGS. 1 and 2 of the attached drawings. In FIG. 1, each point on the graph represents percentage annexin V positive after background percentage (DMF alone) was subtracted.\n(§3) An aliquot containing approximately 1×10^6 cells of each type was placed in a T-225 flask. The effect of varying concentrations of rAd-p53 (from 1×10^7 to 2×10^9ACN53 particles/ml of solution) was investigated in combination with CI-1 in a range of 5–20 μM. In each instance, the cell line was infected with 1×10^7–1×10^9 particles/ml of cell culture with the ACN53 using the empty cassette virus (ZZCB) as a control. In each instance, the cells were exposed to the virus for a period of one hour. At the end of this time, the virus was washed off the from the cells and fresh media containing an appropriate concentration of CI-1 was added.\nHLF cells were infected at increasing log concentrations of rAd-p53 ranging from 1×10^5 to 1×10^9 for one hour at which time virus was washed off and replaced with fresh media (viral infection with no treatment) or with 10 μM calpain inhibitor 1. Cells were assayed for apoptosis by annexin V-FITC staining at 24 and 42 hours post-infection.\nCI-1 was obtained from Boehringer-Mannheim Biochemicals (Indianapolis, Ind.). The CI-1 containing media was prepared as follows. CI-1 was diluted in dimethylformamide (DMF) to a concentration of 33.3 μM/μl. […]"}, "SK-Hep1 cells": {"tested_on": "SK-Hep1 cells", "experiment": "Apoptosis by annexin V-FITC staining, flow cytometry", "type": "cell-based", "conditions": "calpain inhibitor 2 at 20 μM; endogenous wildtype p53", "procedure": "as §1, §2, §3\nCI-1 was obtained from Boehringer-Mannheim Biochemicals (Indianapolis, Ind.). The CI-1 containing media was prepared as follows. CI-1 was diluted in dimethylformamide (DMF) to a concentration of 33.3 μM/μl. The CI-1 solution in DMF was added to achieve a final concentration in the media of 5 or 10 μM final concentration of CI-1. An equivalent volume of DMF alone was added to the control cells. Calpain inhibitor 2, N-acetyl-leu—leu-methioninal (Boehringer Mannheim) was added to cell lines at 5–50 μM final concentration with or without rAd-p53 for 26 hours.\nAt a time of 17 (or 26 hours) post infection, the percentage of cells undergoing apoptosis was determined by convential apoptotic markers. Apoptosis was monitored visually by observing blebbed nuclei characteristic of apoptosis, by propidium iodide staining (using propidium iodide commercially available from Molecular Probes, Inc.) followed by flow cytometric analysis to look for subgenomic populations of cells, and by labeling cells with annexin V-FITC (commercially available from Boehringer Mannheim) in substantial accordance with the instructions provided by the manufacturer, followed by flow cytometric analysis on a FACScan Flow Cytometer (commercially available from Becton Dickinson)."}}, "note": "Peptide text beside a SMILES is read from it."}
{"smiles": "CSCC[C@@H](C=O)NC(=O)[C@H](CC(C)C)NC(=O)[C@H](CC(C)C)NC(C)=O", "note": "[CI-2, N-acetyl-leu—leu-methioninal] (Ac-Leu-Leu-Met-aldehyde)", "values": [{"measurement": "effect on the induction of apoptosis in combination with rAd-p53", "setting": "HLF cells", "result": "no significant effect"}, {"measurement": "increase in annexin V-FITC positive cells", "setting": "SK-Hep1 cells", "result": "no significant increase"}]}
